Experimental data reported in US20120107323A1, “KINASE PROTEIN BINDING INHIBITORS” (University of Florida, priority 2009, published 2012).

Tests used:
[1] = tested on: FAK +/+ and FAK −/− mouse embryonic fibroblast; test: MTT assay on FAK wildtype and null fibroblasts; type: cell-based
Experimental: (§1) Cell viability (MTT) and CFSE Proliferation assay: Cells were plated in 96-well plates and let adhere overnight. After cell treatment, cell viability was measured by 3-(4,5-dimethylthiazol-2-yl)-2,5-diphenyl tetrazolium bromide (MTT) assay (CellTiter 96® Aqueous, Promega, Madison, Wis.).
(§2) Cell proliferation assay: Cell proliferation assay (Promega) using CellTiter 96 aqueous one solution was performed by adding a small amount of the One Solution Reagent directly to culture wells, incubating for 1-4 hours and then recording absorbance at 490 nm with a spectrophotometric plate reader. The quantity of formazan product as measured by the amount of 490 nm absorbance was directly proportional to the number of living cells in culture.
(§3) Cell viability and detachment assays: After cells were treated with siRNA transfection, cell viability was measured by 3-(4,5-dimethylthiazol2-yl)-2,5-diphenyl tetrazolium bromide (MTT) assay (CellTiter 96® AQueous, Promega, Madison, Wis.). Briefly, 20 μl of the tetrazolium compound was added to each well. The cells were then incubated at 37° C. for 1 h. The plate was read at 490 nm with a plate reader to determine the viability. In detachment assays, detached and attached cells were harvested separately and counted in a hemocytometer. The percentage of detachment was calculated by dividing the number of detached cells by the total number of cells. Apoptosis assays: After treatment, attached and detached cells were collected, counted and prepared for terminal uridine deoxynucleotidyl transferase (TUNEL) assay by utilizing an APO-BRDU kit (BD Pharmingen, San Diego, Calif.) according to the manufacturer's instructions. Stained cells were analyzed with a fluorescence-activated cell sorting-Calibur flow cytometer (BD Biosciences). Calculation of the percentage of apoptotic cells in the sample was completed with CellQuest software (BD Biosciences). Apoptotic cells were also analyzed by Hoechst staining. Hoechst 33342 (1 µg/rill) was added to the fixed cells and the specimens were mounted on glass coverslips. The slides were viewed under the Zeiss microscope for apoptotic nuclei. The percent of apoptotic cells was calculated as the ratio of apoptotic cells to total number of cells.

[2] = tested on: MCF7 breast cancer cells; test: Cell viability (MTT), MCF7; type: cell-based; conditions: Homo sapiens; MCF7, 72 hours; read-out: IC50 of INT2-31, cell viability
Experimental: as §1
as §3, with “Calculation of the percentage of apoptotic cells in the sample was completed with CellQuest software (BD Biosciences).” left out, “Hoechst 33342 (1 µg/rill) was added to the fixed cells and the specimens were mounted on glass coverslips. The slides were viewed under the Zeiss microscope for apoptotic nuclei. The percent of apoptotic cells was calculated as the ratio of apoptotic cells to total number of cells.” left out

[3] = tested on: BT474 breast cancer cells; test: Cell viability (MTT), BT474; type: cell-based; conditions: Homo sapiens, BT-474; BT474, 72 hours; read-out: IC50 of INT2-31, cell viability
Experimental: as §1
as §3, with “Calculation of the percentage of apoptotic cells in the sample was completed with CellQuest software (BD Biosciences).” left out, “Hoechst 33342 (1 µg/rill) was added to the fixed cells and the specimens were mounted on glass coverslips. The slides were viewed under the Zeiss microscope for apoptotic nuclei. The percent of apoptotic cells was calculated as the ratio of apoptotic cells to total number of cells.” left out

[4] = tested on: BxPC3 pancreatic cancer cells; test: Cell viability (MTT), BxPC3; type: cell-based; conditions: Homo sapiens, BXPC-3; BxPC3, 72 hours; read-out: IC50 of INT2-31, cell viability
Experimental: as §1
as §3, with “Calculation of the percentage of apoptotic cells in the sample was completed with CellQuest software (BD Biosciences).” left out, “Hoechst 33342 (1 µg/rill) was added to the fixed cells and the specimens were mounted on glass coverslips. The slides were viewed under the Zeiss microscope for apoptotic nuclei. The percent of apoptotic cells was calculated as the ratio of apoptotic cells to total number of cells.” left out

[5] = tested on: insulin receptor, VEGFR-1, AKT-1, EGFR, VEGFR-2, c-MET, PDGFRa, p70S6K, Src and PI3Kinase; test: Kinase profiler screening, other protein kinases; type: biochemical; conditions: 1 μM compound
Experimental: Kinase Profiler Screening: Kinase specificity screening was performed with Invitrogen's SelectScreen® Kinase Profiling Services http://www.invitrogen.com/site/us/en/home/Products-and-Services/Services/Discoverv-Research/SelectScreen-Profiling-Service/SelectScreen-Kinase-Profiling-Service.html. The screening was performed with 1 μM compound, INT2-31, 10 μM ATP, and kinase substrates against ten recombinant kinases according to Z′-LYTET™ Kinase Assay. For PI3 kinase activity, 100 μM ATP, and kinase substrate were utilized with the Invitrogen Adapta® Universal Kinase Assay protocol. Tumor Growth in Nude Mice in vivo: Six week old athymic, female nude mice were purchased from Harlan Laboratory. The mice were maintained in the animal facility, and all experiments were performed in compliance with NIH animal-use guidelines and under an IACUC approved protocol. Melanoma cells were injected, 5×10^6 cells, subcutaneously. When the tumor size reached 100 mm^3, the INT2-31 was introduced by intraperitoneal injection at a dose of 15 mg/kg daily for 21 days. Tumor diameters were measured with calipers, and tumor volume in mm^3 was calculated using the formula [(width)^2×length]/2. At the end of experiment, tumor weight and volume were determined.

[6] = tested on: IGF-1R+/+ and −/− MEFs; test: MTT assay on IGF-1R wildtype and null fibroblasts; type: cell-based, mouse
Experimental: as §1, §2, §3

CSc1ncnc2c1ccn2C1O[C@H](COP(=O)(O)O)[C@@H](O)[C@H]1O (stereo partly drawn) [INT2-31, 4-(Methylthio)-7-(5-O-phosphono-D-ribofuranosyl)-{7H-Pyrrolo[2,3-d]pyrimidine}]
proliferation of FAK+/+ fibroblast cells ([1]; 0.05 μM, 72-hour treatment): reduced the proliferation | proliferation of FAK−/− cells ([1]; 0.05 μM, 72-hour treatment): no effect | effect on FAK wildtype compared to null fibroblasts ([1]; MTT, p<0.05): significantly more sensitive | IC50 [2]: 30 nM | IC50 [3]: 2390 nM | IC50 [4]: 45600 nM | inhibition of any of the other protein kinases [5]: ≤ 22% | proliferation of IGF-1R+/+ fibroblast cells ([6]; 0.05 μM, 72-hour treatment): reduced the proliferation | proliferation of IGF-1R−/− cells ([6]; 0.05 μM, 72-hour treatment): no effect | effect on IGF-1R wildtype compared to null fibroblasts ([6]; MTT, p<0.05): significantly less sensitive
